Laboratory results published in patent US20140105891A1, “TREATMENT OF CANCER” (CERULEAN PHARMA INC., priority 2012, published 2014).

How the values were obtained:
[1] = system: H1299 human NSCLC xenograft; assay: H1299 NSCLC xenograft tumor growth delay; conditions: for tumor-free survival (TFS): CRLX101 10 mg/kg qwk×3, marketed drugs on optimal preclinical regimens; for median tumor volume (MTV) of survivors: D74 survivors, Gemcitabine 120 mg/kg
Experimental: H1299 cells were obtained from the American Type Culture Collection (ATCC), and the tumor line was maintained by serial engraftment in nude mice.
Body weight was measured daily on Days 1-5, then twice weekly until the completion of the study. Tumor volume was measured twice weekly and each animal was euthanized when the calculated tumor volume reached the 2000 mm^3 endpoint, or on day-88 post implantation, whichever came first.

HIF-2α = HIF-2α levels in A2780 xenograft after CRLX101 and Bevacizumab (Western blot); assay type: in vivo, mouse; conditions: CRLX101 5 mg/kg i.v. q7d×2, Bevacizumab 5 mg/kg i.p. Day 1, 4, 8, tumors Day 11
Experimental: (§1) Tumor samples were collected on Day 11, 72 hours after the last treatment (Day 8 for both drugs) and analyzed for HIF-1α and HIF-2α levels using Western blot.

HIF-1α = HIF-1α levels in A2780 xenograft after CRLX101 and Bevacizumab (Western blot); assay type: in vivo, mouse; conditions: CRLX101 5 mg/kg i.v. q7d×2, Bevacizumab 5 mg/kg i.p. Day 1, 4, 8, tumors Day 11
Experimental: as §1

[2] = system: A2780 Ovarian Xenograft Tumors; assay: A2780 ovarian xenograft tumor growth / response rate; assay type: in vivo, mouse; conditions: A2780, Day 42; CRLX101 5 mg/kg IV q7d×3; Bevacizumab 5 mg/kg i.p. biweekly×3; combination at same doses

With `Nc1ccn([C@@H]2O[C@H](CO)[C@@H](O)C2(F)F)c(=O)n1` [Gemcitabine] the “tumor-free survival (TFS)” value ([1]; 74 days post first treatment) was 50% and the “median tumor volume (MTV) of survivors” value ([1]; Docetaxel 30 mg/kg) was 0 mm3.

With `CC(=O)O[C@@]12CO[C@@H]1C[C@H](O)[C@@]1(C)C(=O)[C@H](O)C3=C(C)[C@@H](OC(=O)[C@H](O)[C@@H](NC(=O)OC(C)(C)C)c4ccccc4)C[C@@](O)([C@@H](OC(=O)c4ccccc4)[C@H]21)C3(C)C` [Docetaxel] the survival ([1]; 74 days post first treatment, docetaxel 30 mg/kg qwk×3) was 20%, the “median tumor volume (MTV) of survivors” value ([1]; Docetaxel 30 mg/kg) was 302 mm3 and the “group mean body weight loss” value ([1]; Docetaxel 30 mg/kg, on D21) was 9.3%.

With `CC[C@@]1(O)C(=O)OCc2c1cc1n(c2=O)Cc2cc3c(CN(C)C)c(O)ccc3nc2-1` [Topotecan] the “tumor-free survival (TFS)” value ([1]; 74 days post first treatment) was 10%.

With Bevacizumab: antibody against VEGF the “HIF-2α % of Control” value (HIF-2α) was 146 % of Control, the “HIF-1α % of Control” value (HIF-1α) was 157 % of Control and the “Partial Response (# of mice)” value [2] was 0 of 10.
